Reference: patent publication US7803816B2, “MCH receptor antagonists” (Hoffmann-La Roche Inc., priority 2005, dated 2010)
Structures can show the parent of a compound that is named as a salt.

Biological target: T1, recombinant human MCHR1-receptors (Homo sapiens, UniProt Q99705)
T1 construct: expressed in transfected cells
Experiment: MCHR filter binding assay (competition binding)
Conditions: membranes from CHO-K1 cells expressing human MCHR1; 0.2 nM [Phe13,[125I]Tyr19]-MCH; read-out: IC50 (nM), in vitro activity (binding assay)
Procedure, shortened: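 Membranes from CHO-K1 cells stably expressing human MCHR1 (2.8 μg) preincubated 15 min with competitor, then 1 h at rt with 0.2 nM [Phe13,[125I]Tyr19]-MCH in HEPES/CaCl2/BSA/phenanthroline/Triton buffer. Bound radioactivity counted after rapid filtration over PVP/BSA-treated GF/B filters.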

T1 sequence (Q99705 whole entry): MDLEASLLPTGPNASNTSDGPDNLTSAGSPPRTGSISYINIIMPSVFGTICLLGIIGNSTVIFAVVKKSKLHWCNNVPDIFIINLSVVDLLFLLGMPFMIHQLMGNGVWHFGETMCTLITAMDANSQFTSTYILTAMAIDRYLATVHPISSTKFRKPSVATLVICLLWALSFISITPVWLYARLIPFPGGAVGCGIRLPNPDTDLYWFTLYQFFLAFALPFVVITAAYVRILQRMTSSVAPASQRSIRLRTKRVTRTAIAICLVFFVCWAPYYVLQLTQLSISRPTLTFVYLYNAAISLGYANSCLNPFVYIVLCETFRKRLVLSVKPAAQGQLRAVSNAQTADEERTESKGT

**Q.** `CO[C@H]1CN(C[C@@H]2Cc3ccc(NC(=O)C4CC4)cc3C2)CCC1n1c(C2CC2)nc2cc(C)ccc21` (stereo in doubt) [Example 66, Cyclopropanecarboxylic acid {(R)-2-[(3S,4S)-4-(2-cyclopropyl-5-methyl-benzoimidazol-1-yl)-3-methoxy-piperidin-1-ylmethyl]-indan-5-yl}-amide] was tested. Which IC50 did it give?
**A.** < 20 nM

**Q.** How did the IC50 turn out when `COc1ccc2c(c1)CC(CN1CC[C@H](n3c(C(C)C)nc4cc(C)ccc43)[C@@H](OC)C1)C2` (stereo partly drawn) [Example 93, 2-Isopropyl-1-[(3S,4S)-3-methoxy-1-(5-methoxy-indan-2-ylmethyl)-piperidin-4-yl]-5-methyl-1H-benzoimidazole dihydrochloride] was run?
**A.** 20 to 200 nM

**Q.** Which IC50 does the source give for `CO[C@@H]1CN(CC2Cc3ccccc3C2)CC[C@H]1n1c(C(C)(C)O)nc2cc(C)ccc21` [Example 107, 2-[1-((3R,4R)-1-Indan-2-ylmethyl-3-methoxy-piperidin-4-yl)-5-methyl-1H-benzoimidazol-2-yl]-propan-2-ol] here?
**A.** 20 to 200 nM

**Q.** For `CO[C@H]1CN(C[C@@H]2Cc3ccc(NC(=O)C(F)F)cc3C2)CC[C@@H]1n1c(C(C)C)nc2cc(C)ccc21` [Example 67, 2,2-Difluoro-N-{(R)-2-[(3S,4S)-4-(2-isopropyl-5-methyl-benzoimidazol-1-yl)-3-methoxy-piperidin-1-ylmethyl]-indan-5-yl}-acetamide], which IC50 is on record?
**A.** < 20 nM

**Q.** `CO[C@@H]1CN(CC2Cc3ccccc3C2)CC[C@H]1n1c(C(C)C)nc2cc(C)ccc21` [Example 24, 1-((3R,4R)-1-Indan-2-ylmethyl-3-methoxy-piperidin-4-yl)-2-isopropyl-5-methyl-1H-benzoimidazole] was tested. Which IC50 did it give?
**A.** 20 to 200 nM

**Q.** `CO[C@@H]1CN(C[C@@H]2Cc3ccc(NC(=O)C(C)C)cc3C2)CC[C@H]1n1c(C)nc2cc(C)ccc21` [Example 47, N-{(R)-2-[(3R,4R)-4-(2,5-Dimethyl-benzoimidazol-1-yl)-3-methoxy-piperidin-1-ylmethyl]-indan-5-yl}-isobutyramide] was tested. Which IC50 did it give?
**A.** 20 to 200 nM

**Q.** Which IC50 does the source give for `Cc1ccc2c(c1)nc(C)n2C1CCN(C[C@H]2Cc3ccc(NC(=O)Cc4cccs4)cc3C2)CC1` [Example 38, N-{(S)-2-[4-(2,5-Dimethyl-benzoimidazol-1-yl)-piperidin-1-ylmethyl]-indan-5-yl}-2-thiophen-2-yl-acetamide] here?
**A.** < 20 nM

**Q.** How did the IC50 turn out when `CCc1nc2cc(C)ccc2n1C1CCN(CC2Cc3ccc(NC(=O)C4CC4)cc3C2)CC1` (stereo not shown) [Example 74, Cyclopropanecarboxylic acid {2-[4-(2-ethyl-5-methyl-benzoimidazol-1-yl)-piperidin-1-ylmethyl]-indan-5-yl}-amide] was run?
**A.** 20 to 200 nM

**Q.** Which IC50 does the source give for `CCCC(=O)Nc1ccc2c(c1)C[C@H](CN1CC[C@@H](n3c(C4CC4)nc4cc(C)ccc43)[C@H](OC)C1)C2` [Example 79, N-{(R)-2-[(3R,4R)-4-(2-Cyclopropyl-5-methyl-benzoimidazol-1-yl)-3-methoxy-piperidin-1-ylmethyl]-indan-5-yl}-butyramide] here?
**A.** 20 to 200 nM

**Q.** How did the IC50 turn out when `CCc1nc2cc(C)ccc2n1C1CCN(CC2Cc3ccc(NC(=O)C(C)C)cc3C2)CC1` (stereo not shown) [Example 70, N-{2-[4-(2-Ethyl-5-methyl-benzoimidazol-1-yl)-piperidin-1-ylmethyl]-indan-5-yl}-isobutyramide] was run?
**A.** < 20 nM

**Q.** For `Cc1ccc2c(c1)nc(C)n2[C@H]1CCN(C[C@@H]2Cc3ccc(NC(=O)C(C)C)cc3C2)C[C@@H]1OCC(C)(C)O` [Example 15, N-{(R)-2-[(3S,4S)-4-(2,5-Dimethyl-benzoimidazol-1-yl)-3-(2-hydroxy-2-methyl-propoxy)-piperidin-1-ylmethyl]-indan-5-yl}-isobutyramide; dihydrochloride], which IC50 is on record?
**A.** < 20 nM

Same assay, conditions: membranes from CHO-K1 cells expressing human MCHR1; 0.2 nM [Phe13,[125I]Tyr19]-MCH; read-out: IC50 (nM), selected in vitro MCH-R binding data

**Q.** Which IC50 does the source give for `CO[C@H]1CN(C[C@@H]2Cc3ccc(NC(=O)C4CC4)cc3C2)CCC1n1c(C2CC2)nc2cc(C)ccc21` (stereo in doubt) [Example 66, Cyclopropanecarboxylic acid {(R)-2-[(3S,4S)-4-(2-cyclopropyl-5-methyl-benzoimidazol-1-yl)-3-methoxy-piperidin-1-ylmethyl]-indan-5-yl}-amide] here?
**A.** 12 nM

**Q.** With `Cc1ccc2c(c1)nc(C(C)(C)O)n2[C@@H]1CCN(C[C@H]2Cc3ccc(Br)cc3C2)CC1O` (stereo in doubt) [Example 126, (3R,4R)-1-((S)-5-Bromo-indan-2-ylmethyl)-4-[2-(1-hydroxy-1-methyl-ethyl)-5-methyl-benzoimidazol-1-yl]-piperidin-3-ol] as the molecule, how does the IC50 read?
**A.** 2 nM
